Patent publication US11957739B2, “Compositions and methods for treating cancer using RHOA dominant negative forms” (Dana-Farber Cancer Institute, Inc., priority 2017, dated 2024)

Columns and labels:
[1] = tested on: CDH1-null cells; assay: Ectopic expression of RHOA dominant negative forms in CDH1-null cells; assay type: cell-based
Excerpt: (§1) Diffuse Gastric Cancer (DGC) is a highly lethal variant of gastric cancer, which is prone to early invasion and metastasis, and lacks effective molecularly targeted therapies. DGC initiation typically follows loss of tumor suppressor CDH1 which encodes the cellular adhesion protein E-cadherin. Reduction in and/or loss of E-cadherin (CDH1) is the key hallmark of invasive lobular breast cancer and loss-of-function mutations targeting CDH1 are present in 50%-60% of invasive lobular breast cancer and are believed to be an early event often observed in matching lobular carcinoma in situ (McCart Reed et al. (2015) Breast Cancer Res. 17:12). […] These findings indicate that RHOA dominant negative forms can be used as an effective therapy for DGC and lobular breast cancer as well as other cancers with the EMT phenotype.

[2] = tested on: cells with intact CDH1; assay: Ectopic expression of RHOA dominant negative forms in cells with intact CDH1; assay type: cell-based
Excerpt: as §1

[3] = tested on: NUGC4 tumor; assay: NUGC4 xenograft tumor growth with Dox-induced mutant RHOA expression; assay type: in vivo; settings: E-cadherin loss DGC cells in flank of nude mice; Dox food after 2 weeks; P<0.0001 Ctrl vs T19N
Procedure: (§2) Diffuse gastric cancer (DGC) NUGC4 cells were confirmed for total E-cadherin loss by Western blot analysis. The cells were then stably infected with Dox-inducible lenti-RHOA virus using puro selection. Three million NUGC4 cells were injected into the flank of nude mice. After 2 weeks, regular food was changed to food with Dox in order to induce mutant RHOA expression. N=3 mice for each group. P<0.0001: Ctrl-VS-T19N.
(§3) The 4-week-old male nude mice (BALB/cA-nu (nu/nu)) were injected subcutaneously at each flank with cells infected with dox inducible control or RHOA mutant virus. All animals were maintained and used in accordance with the guidelines of the Institutional Animal Care and Use Committee of Dana-Farber Cancer Institute.

[4] = tested on: CDH1-intact MCF10A cells; assay: Cell titer glo assay in isogenic MCF10A-CDH1-intact cells with constitutive RHOA mutant virus; assay type: cell-based; settings: constitutive expression
Procedure: (§4) Isogenic MCF10A-CDH1-intact cells were infected with different constitutive RHOA mutant virus and the stably infected cells were selected by adding puro for 1 week. The cells were then plated in 96-well plates for analysis using a cell titer glo assay. The MCF10A-CDH1-K0 cells were infected with different Dox-inducible RHOA mutant viruses and the stably-infected cells were selected by adding puro for 1 week. The cells were then plated in 96-well plates with Dox induction for cell titer glo assay analysis.
(§5) Cell viability assay was performed by following the protocol of CellTiter-Glo® (Promega, Cat #G7570).

[5] = tested on: CDH1-null breast epithelial MCF10A cells; assay: Cell titer glo assay in MCF10A-CDH1-KO cells with Dox-inducible RHOA mutant virus; assay type: cell-based; settings: Dox-inducible expression
Procedure: as §4, §5

[6] = tested on: MKN45 tumor; assay: MKN45 xenograft tumor growth with Dox-induced mutant RHOA expression; assay type: in vivo; settings: E-cadherin loss diffuse adenocarcinoma cells in flank of nude mice; Dox food after 2 weeks; P<0.0001 Ctrl vs T19N
Procedure: as §2, with “The diffuse adenocarcinoma MKN45” for “Diffuse gastric cancer (DGC) NUGC4”, “MKN45” for “NUGC4”
as §3

[7] = tested on: CDH1-null stomach organoids; assay: RHOA ectopic expression in isogenic stomach organoids after tamoxifen-induced E-cadherin loss; assay type: cell-based, mouse; settings: ectopic expression by lentivirus; Mist1CreER, Cdh1F/F organoids treated with tamoxifen to induce E-cadherin loss
Procedure: Mist1CreER, Cdh1^F/F organoids were infected with plx307 lenti-EGFP/RHOA-WT/RHO-T19N virus, and the stably infected organoids were selected by adding puro for 1 week. The cells were then treated with or without tamoxifen to activate Cre to induce E-cadherin loss. The RHOA ectopic expression and E-Cadherin loss were validated both Western blot and Tomato/GFP color switch determinations.
Mist1-CreERT2, Cdh1flox/flox, Tomation/GFP mice, which carry conditional alleles with loxP sites flanking exon 2-3 of Cdh1, were kindly provided by Timothy C. Wang at Columbia University. Cre recombinase was activated by oral administration of tamoxifen (Sigma, T5648) TAM (1-5 mg/0.2 ml corn oil, as indicated). All animal studies and procedures were approved by the ethics committees at Dana-Farber Cancer Institute.
The protocol as previously described in Miyoshi et al. (2013) Nat. Prot. 8:2471-2482 was performed as follows: Euthanize mice using a chemical reagent, open the stomach longitudinally and roughly remove contents on the paper towel. Rinse the tissue with ice cold PBS in a 90 mm petri dish, then wash the tissue with […] ice cold PBS in a 50 ml centrifuge tube by vigorous shaking. After washing, place the tissue in a 35 mm petri dish and bring the dish to a biological hood and mince the tissue with fine scissors. […]

| Substance | cell-death in CDH1-null cells [1] | proliferation of CDH1-null cells [1] | inhibition of proliferation and induction of cell-death in cells with intact CDH1 [2] | NUGC4 tumor growth [3] | effect on CDH1-intact MCF10A cells [4] | killing of CDH1-null MCF10A cells [5] | MKN45 tumor growth [6] | killing of CDH1-null stomach organoids [7] |
| --- | --- | --- | --- | --- | --- | --- | --- | --- |
| G17E: Human RHOA G17E dominant negative form (SEQ ID NO: 3), ectopically expressed | induction of cell-death | significant inhibition of proliferation | not in cells with intact CDH1 | – | – | – | – | – |
| G17V: Human RHOA G17V dominant negative form (SEQ ID NO: 2), ectopically expressed | induction of cell-death | significant inhibition of proliferation | not in cells with intact CDH1 | – | – | – | – | – |
| RHOA-T19N: Human RHOA T19N dominant negative form (SEQ ID NO: 1), ectopically expressed from lentivirus | induction of cell-death | significant inhibition of proliferation | not in cells with intact CDH1 | significantly inhibit | spares | specifically kills | significantly inhibit | specifically kills |
